Source: patent publication US8981149B2, “Compounds modulating the hedgehog protein signaling pathway, marked forms thereof, and applications” (Centre National De La Recherche Scientifique, priority 2011, dated 2015)
Where two headings read alike, the source gives them in different places.

Columns and labels:
[1] = test system: PCGs of rat cerebellum; experiment: Proliferation of granule cell precursors (PCGs) of rat cerebellum induced by SAG, 3H-thymidine incorporation; assay type: cell-based; conditions: for IC50: proliferation induced by SAG (0.01 μM), 3H-thymidine incorporation, read-out: IC50 ± SEM, PCGs of rat cerebellum (3)
Method: The granule cell precursors (GCP) are isolated from cerebellums of rats (IFFA-CREDO, France), 8 days after birth (P8). The cerebellums are taken, cut into small pieces, placed in Krebs-Ringer buffer (120 mM NaCl, 5 mM KCl, 1 mM KH2PO4, 25 mM NaHCO3, 15 mM glucose, 0.04 mM phenol red) and incubated for 15 minutes at room temperature in a dissociation buffer composed of Krebs-Ringer with addition of 250 mg/ml of trypsin (Sigma, France). Enzymatic dissociation is stopped by adding an equal volume of Krebs-Ringer buffer containing 250 mg/ml of a trypsin inhibitor and 80 mg/ml of DNase (Sigma, France). The tissue is centrifuged at 100 g for 10 seconds and the pellet obtained is resuspended and triturated using Pasteur pipettes of decreasing diameter to obtain a suspension of isolated cells. This suspension is centrifuged at 200 g for 5 minutes and the pellet obtained is resuspended in Neurobasal medium supplemented with 1 mM of pyruvate, 2 mM L-glutamine, penicillin/streptomycin and 1% of supplement N2, 60 mg/ml N-acetyl cysteine and […] of bovine serum albumin (BSA, Sigma, France).
The cerebellar GCPs obtained are transferred to 96-well plates treated beforehand with poly-D-lysine at a density of 2.10^5 cells/well. SAG in the presence or absence of the other test compounds is added immediately. 12 hours before the end of culture, tritiated thymidine (^3H-thymidine) is added. The cells are aspirated and recovered on a glass fiber filter (GF/C) using an automated cell collector (Brandel, USA). The amount of radioactivity incorporated by the cells was quantified in the presence of a scintillating agent in a liquid scintillation counter (Wallac, USA).
The cerebellar PCGs proliferate in response to activation of the Shh signalling pathway, a response that can be inhibited by the Smo antagonists (Rohatgi et al., 2009, Proc. Natl. Acad. Sci. USA 106: 3196-201). We therefore analyzed the capacity of compound (7d) for inhibiting the proliferation of the PCGs of rat cerebellum in primary culture by measuring the incorporation of tritiated thymidine, a marker of DNA newly synthesized during the proliferation process.

[2] = target: T1, human Smoothened receptor (Homo sapiens, UniProt Q99835); experiment: Saturation of binding of 3H-(7d) to membranes of HEK-hSmo cells; conditions: read-out: Kd of specific binding
T1 construct: expressed in transfected cells
T1 sequence (Q99835 28-787): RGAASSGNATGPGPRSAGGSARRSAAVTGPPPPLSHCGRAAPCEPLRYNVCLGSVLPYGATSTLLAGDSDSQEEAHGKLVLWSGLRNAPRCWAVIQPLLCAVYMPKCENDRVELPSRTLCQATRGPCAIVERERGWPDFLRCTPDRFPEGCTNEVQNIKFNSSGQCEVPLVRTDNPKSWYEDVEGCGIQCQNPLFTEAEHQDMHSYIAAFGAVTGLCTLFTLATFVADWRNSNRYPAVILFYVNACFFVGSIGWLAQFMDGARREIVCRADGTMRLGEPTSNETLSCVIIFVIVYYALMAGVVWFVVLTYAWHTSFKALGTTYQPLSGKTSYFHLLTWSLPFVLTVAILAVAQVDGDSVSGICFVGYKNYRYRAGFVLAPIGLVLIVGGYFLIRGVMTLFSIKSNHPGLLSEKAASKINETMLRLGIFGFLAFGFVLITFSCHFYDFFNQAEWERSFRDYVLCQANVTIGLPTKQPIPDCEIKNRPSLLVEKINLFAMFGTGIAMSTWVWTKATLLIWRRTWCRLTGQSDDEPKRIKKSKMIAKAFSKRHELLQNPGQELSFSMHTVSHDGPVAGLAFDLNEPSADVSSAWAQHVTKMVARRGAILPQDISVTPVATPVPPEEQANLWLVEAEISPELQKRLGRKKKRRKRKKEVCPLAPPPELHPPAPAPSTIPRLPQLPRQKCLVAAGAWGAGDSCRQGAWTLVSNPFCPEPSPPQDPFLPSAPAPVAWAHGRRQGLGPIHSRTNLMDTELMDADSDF
Method: The binding test is carried out on membranes enriched with Smoothened receptor. Cells of the HEK-hSmo line were used for preparing these membranes. The cells are washed and recovered in iced PBS. After centrifugation at 100 g for 7 minutes at 4° C., the pellet is taken up in 10 times its volume of an iced buffer A (50 mM HEPES, pH 7.4, 1 mM EDTA) with addition of 10 μl of a cocktail of protease inhibitors (PEAK, Sigma) per ml of buffer, then it is homogenized using a Polytron grinding mill. After centrifugation at 500 g for 30 minutes at 4° C., which makes it possible to remove the nuclei from the cells, the supernatant is centrifuged again at 48 000 g for 45 min at 4° C. The pellet is taken up in 2 ml of buffer A with PEAK added, then the suspension is homogenized using a glass conical grinding mill and is passed through a 23 G needle. Finally, aliquots are placed in Eppendorf tubes and stored at −80° C. The concentration of total protein in the preparation is determined by Lowry's method using BSA for preparing the standard range. This concentration is 10.9 mg/ml.
The membranes are resuspended in a buffer (50 mM HEPES and 3 mM MgCl2) containing 0.2% of BSA. The tests of binding of ^3H-(7d) are carried out in polypropylene tubes. […] The radioactivity retained on the filter is measured in the presence of 3 ml of scintillating agent in a liquid scintillation counter. […]

[3] = test system: C3H10T1/2 cells; experiment: Differentiation of C3H10T1/2 cells induced by SAG, alkaline phosphatase (AP) activity; assay type: cell-based, mouse; conditions: Mus musculus, C3H 10T1/2
Method: The test compounds of formula (I) were dissolved in dimethylsulfoxide up to a concentration of 10 mM, then stored at a temperature of −20° C. until used.
The line of C3H10T1/2 pluripotent fibroblast cells (ATCC) was cultured in the conditions recommended by the ATCC. These cells were activated using 0.1 μM of SAG according to the methods described by Chen et al., Proc. Natl. Acad. Sci. USA, 2002, 99, 14071 and Frank-Kamenetsky et al., J. Biol., 2002, 1, 10.
Activation by SAG causes differentiation of the cell line and allows it to express alkaline phosphatase (AP). It was thus possible to measure the activity of the Hedgehog protein signalling pathway via measurement of the alkaline phosphatase (AP) activity.
The C3H10T1/2 cells were seeded on 96-well plates at a density of 5.10^3 cells per well, 24 hours before adding the test compounds at a concentration varying from 1 nM to 30 μM and in the presence of 0.1 μM of SAG, using DMEM (Dulbecco's Modified Eagle's Medium) with 10% fetal calf serum as culture medium. The tests were carried out in quadruplicate. The plates were then incubated for 5 to 6 days at a temperature of 37° C. under 5% CO2 atmosphere. The cells were then washed in cold phosphate buffer (“Phosphate Buffer Serum”: PBS), then lysed by sonication at 4° C. in 50 μL of a solution containing 0.9% of NaCl and 0.2% of Triton X-100.
Measurement of the alkaline phosphatase (AP) activity in the lysates thus obtained was then performed according to the method described by Pepinsky et al. (J. Biol. Chem., 1998, 273, 14037). After adding 100 μL of reaction buffer (200 mM Tris-HCl; pH 10.5; 0.4 M of 2-amino-2-methylpropanol and 8 mM of MgCl2) and 50 μL of substrate (4 mM of p-nitrophenyl disodium phosphate), the lysates were incubated at 37° C. for 30-60 min, then the optical density was read at a wavelength of 415 nm.

Question: How did the IC50 ([1]; Rattus norvegicus) turn out when COc1cc(C(=O)NC(=N)Nc2ccc(C)c(NC(=O)c3ccc(CCc4ccccc4)cc3)c2)cc(OC)c1OC.Cl [Compound 7d, 3,4,5-trimethoxy-N—(N-(4-methyl-3-(4-phenethylbenzamido)phenyl)carbamimidoyl)benzamide hydrochloride] was run?
Answer: 0.45 nM

Question: What about the “Type of antagonism on proliferation of PCGs” value ([1]; induced by SAG (0.01 μM)) of the same compound?
Answer: complete antagonist

Question: And the IC50 ([1]; hydrochloride)?
Answer: 0.4 ± 0.1 nM

Question: What about the Kd [2] of the same compound?
Answer: 0.3 nM

Question: And the IC50 ([3]; AP activity, differentiation induced by SAG (0.1 μM), read-out: IC50 ± SEM, C3H10T1/2 cells (2))?
Answer: 6 ± 1 nM

Question: And the IC50 ([3]; SAG 0.1 μM, Mean ± SEM, n ≧ 3, read-out: IC50, differentiation of C3H10T1/2 cells)?
Answer: 6 ± 1 nM

Question: What about the IC50 ([3]; after induction by SAG at 0.1 μM, read-out: IC50, inhibition of alkaline phosphatase (AP) activity, differentiation of C3H10T1/2 cells) of the same compound?
Answer: 6 ± 1 nM
